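Dose response: 5 concentrations. Exposure: 48 h. Format: 96-well plates. Endpoint: linear interpolation; highest concentration if not reached. TGI: total growth inhibition.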
Columns and labels:
Assay in all cases: NCI tumour cell line growth inhibition, 48 h
[1] = test system: SF-295 CNS
[2] = test system: HCT-15 colon
[3] = test system: NCI-H460 lung
[4] = test system: KM12 colon
[5] = test system: UO-31 renal
[6] = test system: SK-MEL-2 melanoma
[7] = test system: UACC-62 melanoma
[8] = test system: SNB-75 CNS
[9] = test system: HCT-116 colon
[10] = test system: EKVX NSCLC
[11] = test system: HCC-2998 colon
[12] = test system: HOP-92 NSCLC
[13] = test system: NCI-H23 lung
[14] = test system: MALME-3M melanoma
[15] = test system: U251 CNS
[16] = test system: OVCAR-4 ovarian
[17] = test system: TK-10 renal
[18] = test system: SK-MEL-5 melanoma
[19] = test system: RXF 393 renal
[20] = test system: MCF7 breast

Structure (SMILES)	TGI [1] [µM]	TGI [2] [µM]	TGI [3] [µM]	TGI [4] [µM]	TGI [5] [µM]	TGI [6] [µM]	TGI [7] [µM]	TGI [8] [µM]	TGI [9] [µM]	TGI [10] [µM]	TGI [11] [µM]	TGI [12] [µM]	TGI [13] [µM]	TGI [14] [µM]	TGI [15] [µM]	TGI [16] [µM]	TGI [17] [µM]	TGI [18] [µM]	TGI [19] [µM]	TGI [20] [µM]
Cc1cn([C@@H]2C[C@H](CO)[C@@H](O)C2)c(=O)[nH]c1=O	> 100	> 100	> 100	> 100	> 100	> 100	> 100	> 100	> 100	> 100	> 100	> 100	> 100	> 100	> 100	> 100				
Cn1ccnc1C(O)(c1nccn1C)c1nccn1C	> 100		> 100	> 100	> 100	> 100		> 100		> 100	> 100	> 100	> 100	> 100	> 100	> 100	> 100	> 100	> 100	
C=CCNC(=S)N=Nc1c(O)[nH]c2ccc([N+](=O)[O-])cc12	> 100	> 100	> 100	> 100	> 100	> 100	> 100		> 100	> 100	> 100	> 100	> 100	> 100	> 100	> 100	> 100	> 100	73.3	> 100
CCC1=NC(C(F)(F)F)(C(F)(F)F)N=C(N2CCOCC2)O1	> 100	> 100	> 100	> 100	> 100	> 100	> 100	> 100	> 100	> 100	> 100	> 100	> 100		> 100	> 100	> 100	> 100	> 100	> 100
c1ccc2c(c1)c1c(n2CCOCCN2CCOCC2)CCCC1	50	> 100	> 100	> 100	> 100	52.4		70.2	> 100	> 100		71.9	> 100	29	64.6	86.8	58.6	48.9		> 100
